What follows are molecules tested against HIF PHD2 (Homo sapiens, UniProt Q9GZT9) (assay: PHD2 inhibition assay (TR-FRET, VCB-Eu detection of hydroxylated P564-HIF1α peptide)). Conditions: 2 nM PHD2, 100 nM P564-HIF1α peptide, 0.25 μM 2-oxoglutarate, 100 μM FeCl2, 2 mM ascorbic acid, pH 6.
HIF PHD2, sequence (Q9GZT9 whole entry): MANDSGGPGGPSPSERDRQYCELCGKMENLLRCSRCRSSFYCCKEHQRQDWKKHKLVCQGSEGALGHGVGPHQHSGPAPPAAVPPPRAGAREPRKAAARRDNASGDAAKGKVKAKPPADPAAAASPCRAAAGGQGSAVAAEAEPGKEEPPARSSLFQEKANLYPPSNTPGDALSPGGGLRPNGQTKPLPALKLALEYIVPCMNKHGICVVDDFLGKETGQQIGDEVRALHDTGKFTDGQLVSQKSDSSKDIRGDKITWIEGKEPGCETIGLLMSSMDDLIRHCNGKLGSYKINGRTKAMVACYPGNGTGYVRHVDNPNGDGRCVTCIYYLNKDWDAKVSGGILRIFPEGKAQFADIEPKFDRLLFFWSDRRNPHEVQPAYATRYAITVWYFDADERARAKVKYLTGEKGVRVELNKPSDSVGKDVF
Format: biochemical
Method: Inhibition of HIF PHD2 activity was quantified utilizing the TR-FRET technology. HIF PHD2 catalyzes a hydroxyl modification on the proline residue of the P564-HIF1α peptide substrate (Biotin-[…] (SEQ ID NO: 7)) resulting in recognition and binding of the europylated Von Hippel-Lindau protein (pVHL), elongin B and elongin C heterotrimeric (VCB-Eu) complex.
The PHD2 inhibition assay was executed by addition of freshly dissolved FeCl2 to 178.57 μM (100 μM final concentration) in PHD2 Reaction Buffer containing 30 mM MES, pH 6, 10 mM NaCl, 0.25% Brij-35, 0.01% BSA, and 1% DMSO. 28 μL of the iron solution and 2 μL of inhibitor compounds serially diluted in 100% DMSO (5% DMSO final) were added to black polypropylene 96-well microtiter plates. To that, 10 μL of 10 nM PHD2 (2 nM final) was added to all wells of the plate except for the 8 wells of column 12 (LO control), and allowed to incubate at room temperature on the shaker for one hour. Column 6 was the HI control containing PHD2 enzyme and 5% DMSO vehicle, but no inhibitor compound. To initiate the PHD2 enzymatic reaction, 10 μL of a solution containing 500 nM P564-HIF1α peptide (100 nM final), 10 mM ascorbic acid (2 mM final), and 1.25 μM 2-oxoglutarate (α-ketoglutarate; 0.25 μM final) in PHD2 Reaction Buffer was added to all wells of the plate and allowed to incubate on the shaker at room temperature for one hour.
The reaction was terminated by addition of 25 μL TR-FRET Buffer (50 mM TRIS-HCl, pH 9, 100 mM NaCl, 0.05% BSA, and 0.5% Tween-20) containing 150 mM succinate (product inhibitor; 50 mM final), 75 nM streptavidin-APC (25 nM final), and 7.5 nM VCB-Eu (2.5 nM final). The TR-FRET detection reagents were placed on a shaker for 1 hour to reach binding equilibrium before reading on the Discovery platform (PerkinElmer). Europium is excited at 315 nm and phosphoresces at 615 nm with a large Stoke's shift. APC, in turn, emits at 655 nm upon excitation at 615 nm. The TR-FRET signal is measured as the ratio of the APC 655 nm signal divided by the internal europium reference 615 nm emission signal.
The POC (percentage of control) was determined by comparing the signal from hydroxylated peptide substrate in the enzyme reaction containing inhibitor compound with that from PHD2 enzyme with DMSO vehicle alone (HI control), and no enzyme (LO control). POC was calculated using the formula: % control (POC)=(cpd−average LO)/(average HI−average LO)*100. Data (consisting of POC and inhibitor concentration in μM) was fitted to a 4-parameter equation (y=A+((B−A)/(1+((x/C)^D))), where A is the minimum y (POC) value, B is the maximum y (POC), C is the x (cpd concentration) at the point of inflection and D is the slope factor) using a Levenburg-Marquardt non-linear regression algorithm.
With Cn1c(=O)c(C(=O)NCC(=O)O)c(O)c2cc(Cl)nnc21 [Example 1, 2-(3-chloro-5-hydroxy-8-methyl-7-oxo-7,8-dihydropyrido[2,3-c]pyridazine-6-carboxamido)acetic acid] the IC50 was 24 nM. In the case of Cn1c(=O)c(C(=O)NCC(=O)O)c(O)c2cc(-c3ccccc3)nnc21 [Example 2, 2-(5-hydroxy-8-methyl-7-oxo-3-phenyl-7,8-dihydropyrido[2,3-c]pyridazine-6-carboxamido)acetic acid], the IC50 is reported as 17 nM. Work on Cn1c(=O)c(C(=O)NCC(=O)O)c(O)c2cc(-c3cccs3)nnc21 [Example 3, 2-(5-hydroxy-8-methyl-7-oxo-3-(thiophen-2-yl)-7,8-dihydropyrido[2,3-c]pyridazine-6-carboxamido)acetic acid] yielded an IC50 of 22 nM. Cn1c(=O)c(C(=O)NCC(=O)O)c(O)c2cc(C3=CCCC3)nnc21 [Example 4, 2-(3-cyclopentenyl-5-hydroxy-8-methyl-7-oxo-7,8-dihydropyrido[2,3-c]pyridazine-6-carboxamido)acetic acid] was tested, and the IC50 was 17 nM. With Cn1c(=O)c(C(=O)NCC(=O)O)c(O)c2cc(C3CCCC3)nnc21 [Example 5, 2-(3-cyclopentyl-5-hydroxy-8-methyl-7-oxo-7,8-dihydropyrido[2,3-c]pyridazine-6-carboxamido)acetic acid] the IC50 was 8.8 nM. Cn1c(=O)c(C(=O)NCC(=O)O)c(O)c2cc(C3=CCCCC3)nnc21 [Example 6, 2-(3-cyclohexenyl-5-hydroxy-8-methyl-7-oxo-7,8-dihydropyrido[2,3-c]pyridazine-6-carboxamido)acetic acid] gave an IC50 of 16 nM. Work on CC(C)Oc1cccc(-c2cc3c(O)c(C(=O)NCC(=O)O)c(=O)n(C)c3nn2)c1 [Example 7, 2-(5-hydroxy-3-(3-isopropoxyphenyl)-8-methyl-7-oxo-7,8-dihydropyrido[2,3-c]pyridazine-6-carboxamido)acetic acid] yielded an IC50 of 26 nM. Molecule CC(C)Oc1ccc(-c2cc3c(O)c(C(=O)NCC(=O)O)c(=O)n(C)c3nn2)cc1 [Example 8, 2-(5-hydroxy-3-(4-isopropoxyphenyl)-8-methyl-7-oxo-7,8-dihydropyrido[2,3-c]pyridazine-6-carboxamido)acetic acid] has an IC50 of 21 nM. CC(C)Oc1ccccc1-c1cc2c(O)c(C(=O)NCC(=O)O)c(=O)n(C)c2nn1 [Example 9, 2-(5-hydroxy-3-(2-isopropoxyphenyl)-8-methyl-7-oxo-7,8-dihydropyrido[2,3-c]pyridazine-6-carboxamido)acetic acid] gave an IC50 of 14 nM. For CSc1ncc2c(O)c(C(=O)NCC(=O)O)c(=O)n(C)c2n1 [Example 10, 2-(5-hydroxy-8-methyl-2-(methylthio)-7-oxo-7,8-dihydropyrido[2,3-d]pyrimidine-6-carboxamido)acetic acid], the IC50 was 25 nM. Molecule Cn1c(=O)c(C(=O)NCC(=O)O)c(O)c2cnc(N3CCCCC3)nc21 [Example 11, 2-(5-hydroxy-8-methyl-7-oxo-2-(piperidin-1-yl)-7,8-dihydropyrido[2,3-d]pyrimidine-6-carboxamido)acetic acid] has an IC50 of 16 nM. For COc1ncc2c(O)c(C(=O)NCC(=O)O)c(=O)n(C)c2n1 [Example 12, 2-(5-hydroxy-2-methoxy-8-methyl-7-oxo-7,8-dihydropyrido[2,3-d]pyrimidine-6-carboxamido)acetic acid], the IC50 was 18 nM. Work on Cn1c(=O)c(C(=O)NCC(=O)O)c(O)c2cnc(N3CCOCC3)nc21 [Example 13, 2-(5-hydroxy-8-methyl-2-morpholino-7-oxo-7,8-dihydropyrido[2,3-d]pyrimidine-6-carboxamido)acetic acid] yielded an IC50 of 240 nM. Molecule Cn1c(=O)c(C(=O)NCC(=O)O)c(O)c2cnc(C(F)(F)F)nc21 [Example 14, 2-(5-hydroxy-8-methyl-7-oxo-2-(trifluoromethyl)-7,8-dihydropyrido[2,3-d]pyrimidine-6-carboxamido)acetic acid] has an IC50 of 6.9 nM. With Cn1c(=O)c(C(=O)NCC(=O)O)c(O)c2cnc(N3CCCC3)nc21 [Example 15, 2-(5-hydroxy-8-methyl-7-oxo-2-(pyrrolidin-1-yl)-7,8-dihydropyrido[2,3-d]pyrimidine-6-carboxamido)acetic acid] the IC50 was 7.35 nM. Molecule CC1CCCCN1c1ncc2c(O)c(C(=O)NCC(=O)O)c(=O)n(C)c2n1 (stereo not shown) [Example 16, 2-(5-hydroxy-8-methyl-2-(2-methylpiperidin-1-yl)-7-oxo-7,8-dihydropyrido[2,3-d]pyrimidine-6-carboxamido)acetic acid] has an IC50 of 52.5 nM. Cn1c(=O)c(C(=O)NCC(=O)O)c(O)c2ncc(-c3ccccc3)nc21 [Example 18, 2-(8-hydroxy-5-methyl-6-oxo-3-phenyl-5,6-dihydropyrido[3,2-b]pyrazine-7-carboxamido)acetic acid] gave an IC50 of 8.8 nM. With CCC1CCCCN1c1ncc2c(O)c(C(=O)NCC(=O)O)c(=O)n(C)c2n1 (stereo not shown) [Example 19, 2-(2-(2-ethylpiperidin-1-yl)-5-hydroxy-8-methyl-7-oxo-7,8-dihydropyrido[2,3-d]pyrimidine-6-carboxamido)acetic acid] the IC50 was 71 nM. For CCC1CCC(C)N(c2ncc3c(O)c(C(=O)NCC(=O)O)c(=O)n(C)c3n2)C1 (stereo not shown) [Example 20, 2-(2-(5-ethyl-2-methylpiperidin-1-yl)-5-hydroxy-8-methyl-7-oxo-7,8-dihydropyrido[2,3-d]pyrimidine-6-carboxamido)acetic acid], the IC50 was 175 nM. Cn1c(=O)c(C(=O)NCC(=O)O)c(O)c2cnc(N3CCCC4CCCCC43)nc21 (stereo not shown) [Example 21, 2-(5-hydroxy-8-methyl-2-(octahydroquinolin-1(2H)-yl)-7-oxo-7,8-dihydropyrido[2,3-d]pyrimidine-6-carboxamido)acetic acid] showed an IC50 of 152 nM. Work on Cn1c(=O)c(C(=O)NCC(=O)O)c(O)c2cnc(-c3cccc(F)c3)nc21 [Example 22, 2-(2-(3-fluorophenyl)-5-hydroxy-8-methyl-7-oxo-7,8-dihydropyrido[2,3-d]pyrimidine-6-carboxamido)acetic acid] yielded an IC50 of 2.9 nM. With Cn1c(=O)c(C(=O)NCC(=O)O)c(O)c2cnc(C#CC3CC3)nc21 [Example 23, 2-(2-(2-cyclopropylethynyl)-5-hydroxy-8-methyl-7-oxo-7,8-dihydropyrido[2,3-d]pyrimidine-6-carboxamido)acetic acid] the IC50 was 12 nM. With Cn1c(=O)c(C(=O)NCC(=O)O)c(O)c2cnc(C3CC3)nc21 [Example 24, 2-(2-cyclopropyl-5-hydroxy-8-methyl-7-oxo-7,8-dihydropyrido[2,3-d]pyrimidine-6-carboxamido)acetic acid] the IC50 was 3.9 nM. Cn1c(=O)c(C(=O)NCC(=O)O)c(O)c2cnc(-c3ccccc3)nc21 [Example 25, 2-(5-hydroxy-8-methyl-7-oxo-2-phenyl-7,8-dihydropyrido[2,3-d]pyrimidine-6-carboxamido)acetic acid] showed an IC50 of 4.3 nM. For Cn1c(=O)c(C(=O)NCC(=O)O)c(O)c2cnc(-c3ccccc3F)nc21 [Example 26, 2-(2-(2-fluorophenyl)-5-hydroxy-8-methyl-7-oxo-7,8-dihydropyrido[2,3-d]pyrimidine-6-carboxamido)acetic acid], the IC50 was 1.5 nM. Cn1c(=O)c(C(=O)NCC(=O)O)c(O)c2cnc(-c3ccc(F)cc3)nc21 [Example 27, 2-(2-(4-fluorophenyl)-5-hydroxy-8-methyl-7-oxo-7,8-dihydropyrido[2,3-d]pyrimidine-6-carboxamido)acetic acid] gave an IC50 of 2.3 nM. Molecule Cn1c(=O)c(C(=O)NCC(=O)O)c(O)c2cnc(-c3ccccc3N3CCOCC3)nc21 [Example 28, 2-(5-hydroxy-8-methyl-2-(2-morpholinophenyl)-7-oxo-7,8-dihydropyrido[2,3-d]pyrimidine-6-carboxamido)acetic acid] has an IC50 of 2.9 nM. Cn1c(=O)c(C(=O)NCC(=O)O)c(O)c2cnc(-c3ccc(N4CCOCC4)cc3)nc21 [Example 29, 2-(5-hydroxy-8-methyl-2-(4-morpholinophenyl)-7-oxo-7,8-dihydropyrido[2,3-d]pyrimidine-6-carboxamido)acetic acid] was tested, and the IC50 was 3.7 nM.

From US8097620B2, “Diazaquinolones that inhibit prolyl hydroxylase activity” (Amgen Inc., priority 2007, dated 2012)
